The series is described as follows: Radiochemical purity by HPLC on storage at room temperature. Format: physicochemical. The conditions noted are these: 4 hours at room temperature. The protocol: The labeling efficiency was analyzed by instant thin layer chromatography (iTLC) and was typically >98%. For iTLC analysis, 1 μL of diluted labeling solution was applied to a strip of iTLC-SA chromatography paper (Agilent P/N A120B12, 114×2.5 mm) and developed in 0.1M citrate buffer (8 cm solvent migration) to assess free ^177Lu (Rf >0.5) and [^177Lu]-6555 (Rf ˜0). The iTLC strips were analyzed using an Eckert & Ziegler AR-2000 Radio-TLC Imaging Scanner. The radiochemical purity was analyzed by high performance chromatography (HPLC) and was typically >90%. Briefly, the product was analyzed using a Phenomenex Luna 3.0 μm C18(2), 100A, 150 mm×4.6 mm column. Eluent A: 50 mM ammonium acetate in water, eluent B: acetonitrile. Gradient: 2% B from 0-5 min; 2% to 26% B from 5-20 min; 26% to 98% B from 20-25 min; 98% to 2% B from 25-26 min; 2% B from 26-30 min. Flow rate: 1.0 mL/min, Radio-HPLC detector: NaI (Eckert & Zeigler FC-1000), UV: 215 nm. The radiochemical purity remained >90% for three days at room temperature.
The above depicted radiopharmaceutical [^177Lu]-6952 can be prepared as described in Example 19 using the radiochemical precursor 6952 (Example 14 above). The labeling efficiency was analyzed by instant thin layer chromatography (iTLC) and was typically >98%. […] The iTLC strips were analyzed using an Eckert & Ziegler AR-2000 Radio-TLC Imaging Scanner. The radiochemical purity was analyzed by high performance chromatography (HPLC) and was typically >90%. Briefly, the product was analyzed using a Phenomenex Luna 3.0 m C18(2), 100A, 150 mm×4.6 mm column. […]
The labeling efficiency was analyzed by instant thin layer chromatography (iTLC) and was typically >95%. […] The iTLC strips were analyzed using an Eckert & Ziegler AR-2000 Radio-TLC Imaging Scanner. The radiochemical purity was analyzed by high performance chromatography (HPLC) and was typically >95%. Briefly, the product was analyzed using a Phenomenex Luna 3.0 m C18(2), 100Å, 150 mm×4.6 mm column. […]
The labeling efficiency was analyzed by instant thin layer chromatography (iTLC) and was typically >95%. […]

Consider `C[C@@H](NC(=O)c1ccc(CNC(=O)CN2CCN3CCN4CCN(CC2)CC(=O)[O][Ga]([O]C(=O)C3)[O]C(=O)C4)cc1)C(=O)N1CCC[C@H]1B(O)O` [[^68Ga]-6555], for which the radiochemical purity remained was > 95%.

Source of the values: patent US11707539B2, “FAP-targeted radiopharmaceuticals and imaging agents, and uses related thereto” (Trustees of Tufts College, priority 2020, dated 2023).
